Assay results published in PubChem BioAssay AID179 (DTP/NCI, 2004).
Calls of active or inactive are those of the source.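 The calls were made as follows: active = compounds giving half or more protection of infected cells from virus-caused growth loss, again on retest; inactive = the rest.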 Where a SMILES comes first, the peptide text is derived from it. Bridges are numbered along the chain shown (N, C = ends). [ ]: non-standard residue; d: D form. The star is where a group is joined. Cbz = O=C(OCc1ccccc1)*; Aib = CC(C)(N)C(=O)O; OBn = c1ccc(CO*)cc1; βAla = NCCC(=O)O

System: CEM cells HIV-1 protection, formazan growth assay
Test: NCI AIDS Antiviral Assay
Details: for IC50: measured here: growth of uninfected CEM cells
Outline: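 Category rules: moderately active means at least 50% protection on retest, and confirmed active means 100% protection reproducibly. The underlying data came from a formazan growth assay in HIV-1-infected CEM cells.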

Compound | EC50 [µM] | IC50 [µM] | outcome
CN1N=C(c2ccncc2)OC1c1cccc(F)c1 (configuration not stated) | > 200 | 79.4 | –
C[n+]1c2ccccc2c(NC(CCCN=C(N)N)C(=O)O)c2ccccc21 (configuration not stated) | – | – | inactive
Cc1ccc(/C=C/C(=N/NC(=O)N/N=C(/C=C/c2ccc(C)cc2)C(C)C)C(C)C)cc1 | > 100 | > 100 | –
ClC1=NSSC1(Cl)Cl | > 200 | 27.5 | –
C=C1c2nc3ccccc3n2C=C(c2ccc(Cl)cc2)N1c1ccccc1 | > 200 | 95.5 | –
CCOC(=O)N1N(c2ccccc2)C(=O)C1(c1ccccc1)c1ccccc1 | > 200 | 135 | –
CCOC(=O)C1=CNC(C(=O)OCC)C1c1cccn1-c1ccc(Cl)cc1[N+](=O)[O-] (configuration not stated) | > 200 | 26.3 | –
CC(C)CC(NC(=O)C(Cc1ccc(O)cc1)NC(=O)C1CCCN1C(=O)C(NC(=O)C(CO)NC(=O)C(CCCCN)NC(=O)C(NC(=O)C(N)CCC(=O)O)C(C)C)C(C)O)C(=O)NC(CO)C(=O)NC(CCCCN)C(=O)O (configuration not stated) (H-EVKSTPYLSK-OH; configuration not given here) | – | – | inactive
COC[C@@]12CCC(OC)C34[C@@H]5C[C@@]6(O)C(OC(=O)c7ccccc7)[C@@H]5[C@](OC(C)=O)(C[C@@H]6OC)[C@@H](C(OC)[C@@H]31)[C@@H]4N(C=O)C2 (some centres not stated) | – | – | inactive
C=C1CN(S(=O)(=O)c2ccc([N+](=O)[O-])cc2)CC(=C)CN(S(=O)(=O)c2ccc([N+](=O)[O-])cc2)CC(=C)CN(S(=O)(=O)c2ccc([N+](=O)[O-])cc2)C1 | > 100 | > 100 | –
CCCCC#C[I+]c1ccccc1 | – | – | inactive
N#CC(NNC(=O)Cc1ccccc1)c1cccc(O)c1 (configuration not stated) | > 468 | 158 | –
CN(C(=O)C12C3C4C5C3C1(C(=O)O)C5C42)C(C)(C)C (configuration not stated) | > 955 | > 955 | –
O=C(Nc1ccccc1)N1CC(CN2CCN(c3ccccc3)CC2)OC1=O (configuration not stated) | > 200 | > 200 | –
Cc1cc(O)c(/C=N/C(=S)NCc2ccccc2)c(=O)o1 | > 200 | > 200 | –
COc1ccc(C[C@H]2COC(=O)[C@@H]2Cc2cc(OC)c(OC)c(OC)c2)cc1OC | > 200 | 115 | –
CC(=O)O[C@H]1CC[C@H]2[C@@H]3CCC4=C(C(=O)C=CC4(C)OC(C)=O)[C@H]3CC[C@]12C (some centres not stated) | > 200 | 13.8 | –
COc1ccccc1NC(=S)N/N=C(/c1ccccc1)c1ccccn1 | > 0.2 | 0.0813 | –
O=[N+]([O-])c1c(F)c(F)c2c(c1F)N(CCCCCl)c1ccccc1S2 | > 200 | 7.94 | –
Nc1ccccc1-c1ccn[nH]1 | > 200 | > 200 | –
Cc1cc(C)n(-c2ccnc3cc(Cl)ccc23)n1 | > 501 | 214 | –

Compound | EC50 [µM] | IC50 [µM] | outcome
COC(=O)C(Cc1nc2ccccc2[nH]c1=O)C(NO)C(=O)Nc1c(Cl)cc([N+](=O)[O-])cc1Cl (configuration not stated) | > 51.3 | > 51.3 | –
COc1ccccc1C1c2cc3c(cc2OC(O)(CO)C1C(=O)O)OCO3 (configuration not stated) (tested in a mixture with another compound) | – | – | inactive
O=C1C2=Cc3ccccc3CCN2c2ccc([N+](=O)[O-])cc21 | > 200 | 166 | –
Clc1cccc(Cl)c1C1CSc2ccccc2N=C1c1ccccc1 (configuration not stated) | > 57.5 | 7.24 | –
CC1=NN(c2nc(N)nc(C(C)Sc3cc(Cl)c(C)cc3S(N)(=O)=O)n2)C(C)(C)C1 (configuration not stated) | > 200 | 42.7 | –
NS(=O)(=O)OCCCCCCCOS(N)(=O)=O | > 871 | 13.5 | –
CC(C)[C@](O)(C(=O)OCC1CCN2CC[C@@H](O)C12)[C@H](C)O (some centres not stated) | > 200 | > 200 | –
Cc1nc(SCC(N)=O)c2sc(=S)n(-c3ccccc3)c2n1 | > 200 | > 200 | –
O=C(Nc1nn[nH]n1)c1nc(-c2ccccc2)cc(=O)[nH]1 | > 200 | > 200 | –
C=C1CC(C)(Cn2c(N)nc3nc[nH]c3c2=O)OC1=O (configuration not stated) | > 200 | 117 | –
O=C(O)CCCCCSCCCCCCSCCCCCC(=O)O | > 50.1 | > 50.1 | –
Nc1c(N=Nc2ccc(S(=O)(=O)c3ccc(N=Nc4cc(S(=O)(=O)O)c5cccc(S(=O)(=O)O)c5c4N)cc3)cc2)cc(S(=O)(=O)O)c2cccc(S(=O)(=O)O)c12 | 25.1 | 380 | –
CC1=NN(c2ccccc2)C(=O)/C1=C\n1c(=S)[nH]c2ccccc21 | > 200 | 87.1 | –
O=C(Nc1nccs1)c1ccc(C(=O)Nc2nccs2)cc1 | > 200 | > 200 | –
CC(C)(C)OC(=O)N1NC(c2ccccc2)CC1c1ccccc1 (configuration not stated) | > 200 | 28.2 | –
CC(=O)N(CCN1C(=O)c2ccccc2C1=O)CCN1C(=O)c2ccccc2C1=O | – | – | inactive
COC(=O)C(/C(=N/NC(N)=O)C(=O)Nc1ccc(C)cc1)c1nc2ccc([N+](=O)[O-])cc2[nH]c1=O (configuration not stated) | > 141 | > 141 | –
CC1(CCCO)CCCCCCCCCC(C)(CCCO)C1=O (configuration not stated) | > 200 | 115 | –
CCC(C)C(NC(=O)C(N)CCCCN)C(=O)NC(CCC(=O)O)C(=O)NC(CO)C(=O)NC(C(=O)O)C(C)O (configuration not stated) (H-KIEST-OH; configuration not given here) | – | – | inactive
CCOC(=O)[C@H]1Nc2ccc(C)cc2C2c3ccccc3CC21 (some centres not stated) | > 17 | > 17 | –
OC1CCC2OOC1O2 (configuration not stated) | – | – | inactive

Compound | EC50 [µM] | IC50 [µM] | outcome
Cc1c(C)c(CC(=O)N2CC2)c(C)c(C)c1CC(=O)N1CC1 | > 200 | 0.794 | –
COc1ccc(/C=C2\CCS(=O)(=O)c3ccccc3C2=O)cc1 | > 200 | 16.6 | –
CN(C)C(=O)Sc1nnc(C(C)(C)C)o1 | > 200 | > 100 | –
c1ccc2c(CCNC3=NCCO3)cccc2c1 | – | – | inactive
Nc1nc(Cl)nc(NCc2ccccc2)n1 | > 200 | > 200 | –
COc1cccc2ccc(C(=O)c3ccccc3)nc12 | > 97.7 | > 97.7 | –
NC(N)=NS(=O)(=O)c1ccc(NCc2cccc3c(=O)c4ccc(Cl)cc4oc23)cc1 | > 25.1 | 2.19 | –
CCOC(=O)c1cc(Sc2ccc(N)c(C(=O)OCC)c2)ccc1N | > 200 | 15.5 | –
CCOC(=O)NC(=O)c1cn(CCN2CCN(C(=O)CNC(=O)CNC(=O)Cn3cc(C(=O)NC(=O)OCC)c(=O)[nH]c3=O)CC2)c(=O)[nH]c1=O | – | – | inactive
Cc1cc(-c2ccc(N=Nc3c(S(=O)(=O)O)cc4cc(S(=O)(=O)O)cc(N)c4c3O)c(C)c2)ccc1N=Nc1ccc2c(S(=O)(=O)O)ccc(N)c2c1O | – | – | inactive
CCOC(=O)C1(C#N)C(C#N)(C#N)C1(CC)CC (configuration not stated) | > 200 | 66.1 | –
O=C1CC(=O)N(CCc2ccncc2)C(=O)N1CCc1ccncc1 | – | > 200 | inactive
NC(=O)C(NCc1ccccc1)c1ccccc1 (configuration not stated) | > 200 | > 200 | –
CC1(C)NC(=O)C(NC(=O)C(CC(=O)OCc2ccccc2)NC(=O)OCc2ccccc2)CCCCNC(=O)CCNC1=O (configuration not stated) (Cbz-D(OBn)K[Aib][βAla]; lactam 2-C; configuration not given here) | > 200 | > 200 | –
Cc1ccc2c(c1)NC(=O)CC(c1ccccc1)=N2 | > 200 | 115 | –
O=S(=O)(O)c1cccc2c(N=Nc3ccc(N=Nc4ccc(Nc5ccccc5)c5c(S(=O)(=O)O)cccc45)c4ccccc34)cccc12 | > 50.1 | 34.7 | –
O=C(O)CCNS(=O)(=O)c1ccc2ccccc2c1 | – | – | inactive
O=[N+]([O-])c1ccc(-c2nc(N(CCO)CCO)c3ccccc3n2)o1 | > 200 | 0.331 | –
CC(C)(C)N=C1CC(C)(C)c2ccccc2C(=Nc2ccccc2)S1 | – | – | inactive
O=C1C(=Cc2ccc(F)cc2)C(=O)c2ccccc21 | > 10.7 | > 10.7 | –
Cc1ccsc1/C=N/Nc1cnccn1 | > 200 | 75.9 | –

Compound | EC50 [µM] | IC50 [µM] | outcome
Cc1cc(O)c(/C=N/C(=S)NCCc2ccccc2)c(=O)o1 | > 200 | > 200 | –
C[C@H]1c2c(n(C3OC(CO)C(O)C3O)c(=O)[nH]c2=O)O[C@@H]1c1ccccc1 (some centres not stated) | > 200 | > 200 | –
O=C(Nc1ccc(-c2cccs2)oc1=O)c1ccccc1 | > 200 | > 200 | –
O=[N+]([O-])C(Cl)=C/C(=C(\Cl)SCc1ccccc1)[N+](=O)[O-] | > 200 | 12 | –
COc1cc2cc3c4cc(OC)c(OC)cc4cc(C)[n+]3cc2cc1OC | – | – | inactive
COc1ccc(Cl)c(CCCCCCCC(=O)O)c1 | > 200 | > 200 | –
N#CC1=C(N)N(/N=C/c2ccccc2)C(c2ccccc2)C1(C#N)C#N (configuration not stated) | > 200 | 3.89 | –
Cc1ccc(NC(=O)CC(=O)n2nc(C)c(N=Nc3ccccc3Cl)c2C)cc1 | – | – | inactive
CC(=O)N(C)OC(=O)CC(=O)c1ccccc1 | > 776 | 661 | –
CCN(CC)CCCN1CC(=O)N2CCCCN2C(=O)C1 | > 200 | > 200 | –
O=C(c1ccc(Cl)cc1)N(C(=S)N1CCN(c2ccccc2)CC1)C1CCCCC1 | > 6.17 | > 6.17 | –
O=C1c2ccccc2C(=O)N1CC(CN1C(=O)c2ccccc2C1=O)(C(=O)OCc1ccccc1)C(=O)OCc1ccccc1 | > 200 | > 200 | –
CCCCCC(/C=C/c1ncccc1OCCCCCC(=O)O)=N\NC1=NCCN1 | > 44.7 | > 44.7 | –
Nc1nc(NC2C3CC4CC(C3)CC2C4)nc(-c2n[nH]c(=S)o2)n1 (configuration not stated) | > 55 | 28.2 | –
C/C(=N/NC(=O)c1ccccc1Nc1ccccc1C(=O)N/N=C(\C)c1ccc(C)cc1)c1ccc(C)cc1 | > 20 | 8.91 | –
CCCCCCOC(=O)c1[nH]c(=O)n(CCCCCC)c(=O)c1NC(=O)CNc1ccc2c(=O)c3ccccc3[nH]c2c1 | > 200 | 1 | –
CCO[C@H]1CC(C)C2[C@H](CC3(C)C4CC(OC(C)=O)C5C(C)(C)[C@@H](OC6OCC(O)C(O)C6O)CC[C@@]56C[C@@]46CC[C@]23C)O1 (some centres not stated) | > 41.7 | > 41.7 | –
C=C1CN(S(=O)(=O)c2ccc(C)cc2)CCCN(Cc2cccn2C)CCCN(S(=O)(=O)c2ccc(C)cc2)C1 | > 200 | 38.9 | –
